Assay in all cases: NCI-60 cell line screen, 48 h
The test system of assay [1] is CAKI-1 renal.
The subject of assay [2] is LOX IMVI melanoma.
For assay [3], the system named is SK-OV-3 ovarian.
Assay [4] has as its system HT29 colon.
In assay [5] the test system is CCRF-CEM leukemia.
The subject of assay [6] is EKVX NSCLC.
Assay [7] relates to UACC-62 melanoma.
Assay [8] concerns 786-0 renal.
Assay [9] concerns HL-60(TB) leukemia.
The test system of assay [10] is NCI-H226 lung.

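Five concentrations, 48 hours, 96-well plates. At the GI50, growth is halved. TGI: concentration producing complete growth inhibition.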

Regarding `Nc1nnc(Cn2c(-c3ccccc3)nc3ccc(Br)cc3c2=O)s1`, the GI50 in [1] is 25.1 µM; in [2] it was 26.1 µM; in assay [3], more than 100 µM; in [4], 48.1 µM; in assay [5] it was 16.3 µM; in [6], more than 100 µM. Moreover, the GI50 was 15.2 µM in [7] and 58.7 µM in [8]. Further, the TGI was more than 100 µM in assay [1]; more than 100 µM in assay [2]; more than 100 µM in assay [3]; more than 100 µM in [4]; 67.6 µM in assay [5]; more than 100 µM in assay [6]. Moreover, the TGI in assay [7] and in assay [8] was more than 100 µM each time.
For `COc1ccc(-c2ccc(/C=N/n3c(C)nn(CN4CCN(C)CC4)c3=S)o2)c([N+](=O)[O-])c1`, the GI50 in [9] is 14.9 µM; in [1] it was 24.4 µM; in assay [3], 45 µM; in assay [4], 28 µM; in assay [5], 22 µM; in [6], more than 100 µM. The results for the GI50 in assay [7] and in [8] were 55.4 µM and 39.4 µM, respectively. The TGI in assay [9] is 33.3 µM; in assay [1] it was more than 100 µM; in assay [3], more than 100 µM; in [4] it was more than 100 µM; in [5], 61.4 µM; in assay [6], more than 100 µM. Besides, the TGI in [7] and in assay [8] was more than 100 µM each time.
Regarding `O=[N+]([O-])c1ccc(Sc2c3ccccc3nc3ccccc23)nc1`, the TGI worked out at 11.8 µM in assay [1]; 4.97 µM in [2]; 17.7 µM in assay [3]; 35.8 µM in assay [10]; 8.62 µM in [4]; 5.76 µM in assay [5]. The TGI in [6] is 31 µM; in [7] it was 29.5 µM; in assay [8], 4.25 µM.
`Cn1c2c(c3ccccc31)CCN(CCCCN1CCN(c3cccc(Cl)c3)CC1)C2=O`: the TGI in assay [9] was 18.9 µM; in assay [1] it was more than 100 µM; in [3] it was 37.8 µM; in assay [4], 10.5 µM; in [5], more than 100 µM; in [6], 69.2 µM. For the same compound, the figures for the TGI in [7] and in assay [8] were 23.6 µM and 29.6 µM, respectively.
Turning to `c1ccc(COCC2OC3c4ccccc4COC3C2OCc2ccccc2)cc1` (configuration not stated), the TGI in assay [1], in assay [3], in assay [10], in [4], in [6] and in [7] was more than 100 µM each time. In [8], this compound returned a TGI of more than 100 µM.
`COc1cnc2c(c1)C(=O)c1c-2n(CCCN2CCCC2)c(=O)c2cc(F)ccc12`: the GI50 in assay [9] is 0.311 µM; in [2] it was 0.185 µM; in [3], 0.272 µM; in assay [10], 0.164 µM; in assay [4], 0.209 µM; in [5], 0.199 µM. The results for the GI50 in assay [6], in [7] and in [8] were 0.407 µM, 0.471 µM and 0.257 µM, respectively. The TGI in [9] stood at 1.13 µM; in assay [2], 0.558 µM; in assay [3] it was 0.986 µM; in [10] it was 0.382 µM; in [4] it was 1.1 µM; in assay [5], 2.82 µM. Further, the TGI stood at 4.24 µM in [6], 2.21 µM in assay [7] and 1.11 µM in assay [8].
For `CCOC(=O)Nc1ccc(-c2nc(-c3cccc(OC)c3)c(-c3ccnc(Br)c3)[nH]2)cc1`, the GI50 in assay [9] is 2.34 µM; in assay [2] it was 1.56 µM; in assay [3] it was 3.9 µM; in assay [10], 2.21 µM; in assay [4], 3.45 µM; in assay [5] it was 2.75 µM. Moreover, the figures for the GI50 in [6], in assay [7] and in [8] were 2.45 µM, 1.89 µM and 2.16 µM, respectively. Also, the TGI in assay [9] was 7.41 µM; in [2], 3.32 µM; in assay [3], more than 100 µM; in assay [10], 7.78 µM; in assay [4], more than 100 µM; in [5] it was more than 100 µM. Moreover, the TGI is 8.8 µM in assay [6], 4.18 µM in [7] and more than 100 µM in assay [8].
Turning to `N[C@@H]1CCCN(c2c(/C=C3\SC(=O)NC3=O)cccc2-c2ccccc2)C1`, the GI50 is 17.8 µM in assay [9]; 15 µM in [1]; 15.7 µM in [2]; 15.5 µM in assay [3]; 12.8 µM in [10]; 12.8 µM in assay [4]. Besides, the GI50 in assay [5] was 14 µM; in [7] it was 13.7 µM; in assay [8] it was 15.4 µM. Moreover, the TGI stood at 42.6 µM in assay [9]; 31.7 µM in assay [1]; 30.1 µM in assay [2]; 35 µM in assay [3]; 36.9 µM in [10]; 27.8 µM in assay [4]. Moreover, the TGI amounted to 38.8 µM in assay [5], 27.3 µM in [7] and 29.8 µM in assay [8].
`O=C1C(Cl)=C(Nc2cccc(O)c2)C(=O)N1c1ccccc1Cl`: the GI50 is 40.3 µM in assay [1]; 20.1 µM in [2]; 49.9 µM in assay [3]; 17 µM in assay [10]; 24.6 µM in assay [4]; 1.48 µM in assay [5]. For the same compound, the values for the GI50 in assay [6], in assay [7] and in assay [8] were 76.1 µM, 19.6 µM and 39 µM, respectively. Besides, the TGI in assay [1] was more than 100 µM; in assay [2], 52.6 µM; in [3], more than 100 µM; in [10], 49.6 µM; in assay [4] it was 89.2 µM; in [5], 19.6 µM. Also, the TGI is more than 100 µM in assay [6], 62.3 µM in assay [7] and more than 100 µM in assay [8].
On to `CCCCn1sc(=O)n(Cc2ccc(CNC(=O)OCc3ccc4c(Br)cc(Br)c(O)c4n3)cc2)c1=O`, for which the GI50 in [9] was 0.374 µM; in assay [1], 0.609 µM; in [2], 0.403 µM; in assay [3], 1.72 µM; in assay [4] it was 28.6 µM; in assay [5] it was 0.353 µM. The GI50 is more than 40.6 µM in assay [6], 0.916 µM in assay [7] and 1.58 µM in assay [8]. The TGI in assay [1], in assay [2], in assay [3], in [4], in assay [5] and in assay [6] was more than 100 µM each time. The TGI in [7] and in assay [8] was more than 100 µM throughout.
Regarding `Cc1cc(C)c(S(=O)(=O)ONC(=O)OC(C)(C)C)c(C)c1`, the TGI in assay [9], in assay [1], in assay [2], in assay [3], in assay [4] and in assay [5] was more than 100 µM in each case. For the same compound, the TGI in assay [6], in [7] and in [8] was more than 100 µM each time.
`CSc1ccc(/C=C/c2ccnc3ccccc23)cc1`: the TGI in assay [9] came out at 24.4 µM; in assay [2] it was 25.4 µM; in [3], 33.3 µM; in assay [10] it was 29 µM; in assay [4], 31 µM; in assay [5], 78.3 µM. Besides, the TGI was found to be 22.3 µM in assay [6] and 27.9 µM in [8].
In the case of `CNCCCNc1nc2ccccc2c2c(=O)c3cc(Cl)ccc3sc12`, the GI50 in assay [1] was 1.4 µM; in assay [3], 1.47 µM; in [10], 4.58 µM; in assay [4], 1.67 µM; in assay [7], 1.62 µM; in assay [8], 1.71 µM. Further, the TGI in [1] came out at 2.7 µM; in [3], 2.89 µM; in assay [10] it was 47.1 µM; in assay [4] it was 3.13 µM; in assay [7], 3.04 µM; in assay [8], 3.2 µM.
With `COc1cc(-c2cc(=O)c3cc(C)c(C)c(C(=O)O)c3o2)cc(OC)c1OC`, the TGI in assay [2], in assay [3], in assay [4], in [5], in [6] and in assay [7] was more than 100 µM throughout. Besides, in [8], the TGI was more than 100 µM.
`CCCCCC/C=C\CCCCCCCCCC1=CC(=O)C=C(OC)C1=O`: the TGI was determined as 9.65 µM in assay [1]; 13.9 µM in assay [2]; 16 µM in assay [3]; 11.1 µM in assay [10]; 11.8 µM in assay [4]; 12.5 µM in [6]. The TGI came out at 16.9 µM in assay [7] and 17 µM in assay [8].
In the case of `COc1cccc2[nH]c(-c3ccccn3)nc12`, the TGI in assay [1], in assay [2], in assay [3], in assay [10], in assay [4] and in assay [6] was more than 100 µM in each case. The TGI in assay [7] and in assay [8] was more than 100 µM in each case.
`CC(=O)OCC1O[C@@H]([S-])C(OC(C)=O)[C@H](OC(C)=O)[C@@H]1OC(C)=O.[Au+].c1ccc(CN2[CH-]N(Cc3ccccc3)C(c3ccccc3)=C2c2ccccc2)cc1`: the GI50 is 2.24 µM in assay [9]; 2 µM in [1]; 1.9 µM in [2]; 3.39 µM in assay [3]; 3 µM in assay [10]; 1.99 µM in assay [5]. Further, the GI50 in assay [7] was 1.76 µM; in assay [8] it was 1.69 µM. Further, the TGI in assay [9] amounted to 6.12 µM; in [1] it was 3.95 µM; in assay [2] it was 3.86 µM; in assay [3], 10.2 µM; in [10] it was 9.04 µM; in [5] it was 5.51 µM. Moreover, the values for the TGI in assay [7] and in [8] were 3.47 µM and 3.39 µM, respectively.
For the compound `CCC[CH2][Sn]([CH2]CCC)([O]C(=O)C1CCC(=O)N1)[O]C(=O)C1CCC(=O)N1` (configuration not stated), the GI50 in assay [9] is 0.157 µM; in assay [1] it was 0.0757 µM; in assay [2], 0.152 µM; in [3] it was 0.801 µM; in assay [10], 1.43 µM; in assay [4] it was 0.588 µM. In addition, the values for the GI50 in [6], in assay [7] and in [8] were 0.264 µM, 0.154 µM and 0.196 µM, respectively. Also, the TGI in assay [9] was determined as 0.445 µM; in [1] it was 0.356 µM; in assay [2], 0.328 µM; in [3], 2.02 µM; in [10], 2.81 µM; in assay [4], 2.06 µM. Also, the TGI is 0.918 µM in [6], 0.331 µM in assay [7] and 0.409 µM in assay [8].
In the case of `Cc1ccc(C)c(NC(=O)CCc2nc(=S)[nH][nH]2)c1`, the TGI in [1], in assay [2], in [3], in [10], in assay [4] and in assay [5] was more than 100 µM throughout. For the same compound, the TGI in [6], in [7] and in assay [8] was more than 100 µM each time.
Take `CC/C(C)=C1\OC(=O)C(C)C(O)C(Cc2cccnc2)NC(=O)C(NC(=O)c2ncccc2O)C(C)OC1=O` (configuration not stated): the TGI in assay [9], in assay [1], in [2], in [3], in [4] and in assay [6] was more than 100 µM each time. Besides, the TGI in [7] and in [8] was more than 100 µM throughout.
As to `CC(=O)OC1CC2C(C)(C)C(=O)C=CC2(C)C2CCC3(C)C(c4ccoc4)OC(=O)C4OC43C12C` (configuration not stated), the TGI in assay [9] was more than 100 µM; in assay [1] it was 31.1 µM; in assay [3], 48.7 µM; in [10], more than 100 µM; in assay [4] it was 39 µM; in assay [6], more than 100 µM. For the same compound, the results for the TGI in assay [7] and in [8] were 18.4 µM and 27.4 µM, respectively.
Consider `CCC1CCc2nc3sc(C(=O)Nc4ccccc4C)c(N)c3cc2C1` (configuration not stated), for which the GI50 was 0.214 µM in [9]; 0.451 µM in assay [1]; 0.775 µM in assay [2]; 0.855 µM in assay [3]; more than 100 µM in assay [10]; 0.331 µM in assay [5]. In addition, the GI50 in assay [7] is 0.329 µM; in assay [8] it was 0.371 µM. In addition, the TGI in assay [9] is 0.617 µM; in assay [1], more than 100 µM; in assay [2], more than 100 µM; in assay [3], more than 100 µM; in [10] it was more than 100 µM; in assay [5] it was more than 100 µM. Besides, the TGI in assay [7] and in assay [8] was more than 100 µM throughout.

The record behind these values is PubChem BioAssay (NCI).
